Article PMC10794144, “A novel antibiotic class targeting the lipopolysaccharide transporter” (Nature, 2024)
In brackets after ≈: the same amount, converted by molar mass. Like-named read-outs stand apart in the source and are kept apart here.

How the values were obtained:
P. aeruginosa ATCC 27853 = experiment: microbe, parasite or virus in culture; settings: for MIC: Pseudomonas aeruginosa; for RO7223280 MIC 100%: P. aeruginosa ATCC 27853, read at 100%
In short: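 Standard broth microdilution per CLSI; diluted 0.5 McFarland inocula in cation-adjusted Mueller-Hinton broth; visual or OD600 endpoint.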

HEK293 cells = experiment: Cell-viability assay (CellTiterGlo); assay type: cell-based; settings: Homo sapiens, 24 h, 37 °C, 3.125–100 μM, n = 2
Procedure: Compounds were prepared in serial dilutions (3.125–100 μM in 1% DMSO) and transferred to 384-well plates together with a positive (Staurosporine) and a negative (no compound) control. In total, 25 μl of HEK293 cells (ATCC; verified by short tandem repeat PCR and mycoplasma negative) (50,000 cells per ml) were added in either low-serum-containing (0.5% fetal bovine serum (FBS)) or high-serum-containing (12.5% FBS, 1% BSA) medium (Dulbecco’s modified Eagle medium (DMEM), glucose, L-glutamine). The plates were incubated for 24 h at 37 °C and a mixture of CellTiterGlo and DMEM was added to the plates. After incubation at room temperature, the luminescence signal was read using a BioTeK reader and a calculated IC50 was derived from the data.

hERG = hERG (Homo sapiens, UniProt Q12809); experiment: hERG
Sequence of hERG (Q12809 whole entry): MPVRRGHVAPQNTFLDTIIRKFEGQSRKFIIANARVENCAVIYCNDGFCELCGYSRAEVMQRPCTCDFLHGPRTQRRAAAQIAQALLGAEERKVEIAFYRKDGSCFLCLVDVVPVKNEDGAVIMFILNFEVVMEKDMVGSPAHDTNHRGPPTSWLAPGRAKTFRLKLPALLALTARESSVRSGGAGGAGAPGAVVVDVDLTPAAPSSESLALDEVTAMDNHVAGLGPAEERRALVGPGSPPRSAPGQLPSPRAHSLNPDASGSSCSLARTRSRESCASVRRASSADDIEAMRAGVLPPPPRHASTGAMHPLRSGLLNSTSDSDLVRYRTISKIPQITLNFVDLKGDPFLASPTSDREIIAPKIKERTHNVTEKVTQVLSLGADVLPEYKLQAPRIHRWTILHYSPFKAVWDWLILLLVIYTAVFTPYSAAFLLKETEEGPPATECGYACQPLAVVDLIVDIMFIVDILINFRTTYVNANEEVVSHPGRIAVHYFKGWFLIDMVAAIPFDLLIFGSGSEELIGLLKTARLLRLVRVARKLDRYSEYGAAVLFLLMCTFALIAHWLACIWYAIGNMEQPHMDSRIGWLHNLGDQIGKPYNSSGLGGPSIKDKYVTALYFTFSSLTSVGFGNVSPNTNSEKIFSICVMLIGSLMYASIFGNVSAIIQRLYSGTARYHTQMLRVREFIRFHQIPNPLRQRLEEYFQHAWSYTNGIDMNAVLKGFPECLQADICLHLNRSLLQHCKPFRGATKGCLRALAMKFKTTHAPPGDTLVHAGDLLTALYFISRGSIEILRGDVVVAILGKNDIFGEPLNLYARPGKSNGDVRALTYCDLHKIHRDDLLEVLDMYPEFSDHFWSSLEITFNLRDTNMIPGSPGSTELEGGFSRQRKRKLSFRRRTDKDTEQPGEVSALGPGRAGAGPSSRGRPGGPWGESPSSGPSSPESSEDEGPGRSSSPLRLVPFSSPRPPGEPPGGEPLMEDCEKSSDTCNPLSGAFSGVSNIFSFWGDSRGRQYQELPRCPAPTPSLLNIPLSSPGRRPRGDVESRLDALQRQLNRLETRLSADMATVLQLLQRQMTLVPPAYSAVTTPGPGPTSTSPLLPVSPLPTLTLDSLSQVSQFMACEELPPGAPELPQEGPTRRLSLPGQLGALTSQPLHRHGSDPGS

[1] = Rat plasma precipitation assay; settings: Wistar rat heparin plasma 1:1 with compound in saline/PBS; absorbance difference OD362 ≥ 0.05; n = 1
Procedure: Whole blood was obtained from WISTAR rats and collected in 1.2 ml heparin tubes for the preparation of heparin plasma. The tubes were then centrifuged for 5 min at 5,200g at room temperature to isolate the plasma supernatant. Test compounds were received as powder and solubilized at various concentrations in 0.9% aqueous sodium chloride solution and adjusted for pH with phosphate-buffered saline (PBS). The assay was conducted in 384-well plates. Rat plasma (10 µl) was added to 10 µl of the various compound solutions. A total of 10 µl of vehicle (0.9% aqueous sodium chloride solution, PBS) added to the plasma was used as a negative control. The absorption was measured at 362 nm. Raw data were obtained as absorbance data. The difference between the absorbance of the sample and the mean absorbance of the vehicle was calculated. The minimum effect concentration was defined as the lowest concentration giving an absorbance difference of OD362 ≥ 0.05.

[2] = Human whole blood haemolysis assay; settings: human heparinated blood, 10 min 37 °C
Procedure: For the in vitro haemolysis test, blood was provided by Roche medical services through an anonymous blood donation for research program, approved by the Ethics Committee Northwestern Switzerland and Central Switzerland (EKNZ) and collected with informed consent. Blood was collected by venipuncture in ethylenediaminetetraacetic acid (EDTA) and Li-heparin-coated tubes. Plasma was prepared from anticoagulated blood by centrifugation (2,500g; 10 min; at room temperature) and the haematocrit was measured to ensure that it was within normal reference values. Each formulation of compound in saline was added at a concentration of 8 mg ml^−1 into test tubes containing exactly 0.5 ml of heparinated blood to give a final assay volume of 1 ml and a concentration of 4 mg ml^−1 or less (following further dilutions). After incubation in a water bath for 10 min at 37 °C, the tubes were centrifuged (10 min, 1,811g at room temperature) and 100 μl of the supernatant was subsequently transferred into test tubes containing 5 ml Drabkins solution (RANDOX Laboratories) and 1 ml phosphate buffer. Haemoglobin was photometrically determined at 540 nm according to the RANDOX test-kit instructions. The results were expressed as percentage haemolysis extrapolated from an internal standard curve with 0%, 50% and 100% haemolysed blood samples.

Abl kinase = target: T1, Abl kinase (Homo sapiens, UniProt P00519); experiment: Off-target screening (CEREP); assay type: biochemical; settings: read-out: percent inhibition
T1 construct: purchased Eurofins CEREP SA
T1 sequence (P00519 whole entry): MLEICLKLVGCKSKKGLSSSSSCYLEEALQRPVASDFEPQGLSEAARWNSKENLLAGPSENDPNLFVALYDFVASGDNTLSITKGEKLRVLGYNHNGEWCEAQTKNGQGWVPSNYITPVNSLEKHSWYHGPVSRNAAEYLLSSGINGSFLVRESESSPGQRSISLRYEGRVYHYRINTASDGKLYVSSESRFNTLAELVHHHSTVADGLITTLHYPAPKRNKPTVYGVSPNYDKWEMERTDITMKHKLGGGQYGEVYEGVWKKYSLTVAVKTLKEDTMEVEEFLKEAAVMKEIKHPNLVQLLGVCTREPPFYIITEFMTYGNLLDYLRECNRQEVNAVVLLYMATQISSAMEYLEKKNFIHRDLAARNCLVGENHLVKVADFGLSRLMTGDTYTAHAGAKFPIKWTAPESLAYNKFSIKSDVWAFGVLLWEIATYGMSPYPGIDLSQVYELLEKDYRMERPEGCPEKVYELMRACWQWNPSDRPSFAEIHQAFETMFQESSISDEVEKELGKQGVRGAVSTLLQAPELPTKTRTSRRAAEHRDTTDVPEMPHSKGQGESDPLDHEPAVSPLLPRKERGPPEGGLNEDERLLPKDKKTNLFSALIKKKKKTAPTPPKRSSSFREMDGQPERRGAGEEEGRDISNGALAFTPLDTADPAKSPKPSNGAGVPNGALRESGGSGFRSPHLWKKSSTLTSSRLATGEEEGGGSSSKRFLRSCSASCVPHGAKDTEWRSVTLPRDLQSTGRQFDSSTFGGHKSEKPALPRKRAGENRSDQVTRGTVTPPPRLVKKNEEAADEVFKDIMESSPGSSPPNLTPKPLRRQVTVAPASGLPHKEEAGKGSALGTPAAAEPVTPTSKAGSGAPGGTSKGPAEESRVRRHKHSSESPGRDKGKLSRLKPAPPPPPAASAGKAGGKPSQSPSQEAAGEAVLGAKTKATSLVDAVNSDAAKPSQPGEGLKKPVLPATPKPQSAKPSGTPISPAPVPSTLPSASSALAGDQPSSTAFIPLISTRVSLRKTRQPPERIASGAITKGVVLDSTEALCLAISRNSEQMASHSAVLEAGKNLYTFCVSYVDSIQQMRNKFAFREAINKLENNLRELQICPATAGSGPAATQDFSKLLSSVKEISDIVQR
Procedure: (§1) Supplementary Table 1 │ Off-target activity screening f or MCP compou nds […]
(§2) The assays given in the table above were conducted at Eurofins CEREP S A (Celle-Lévescault, France) and were run as single point measurements in duplicates in the presence of 10 µ M of the test compound and reported as percent inhibition of the radioligand signal or control enzymatic activity. n.d., not

CDK2 = target: T2, CDK2 (Homo sapiens, UniProt P24941); experiment: Off-target screening (CEREP); assay type: biochemical; settings: read-out: percent inhibition
T2 construct: purchased Eurofins CEREP SA
Procedure: as §1, §2

Monoamine oxidase-A = target: T3, Monoamine oxidase-A (Homo sapiens, UniProt P21397); experiment: Off-target screening (CEREP); assay type: biochemical; settings: read-out: percent inhibition
T3 construct: purchased Eurofins CEREP SA
T3 sequence (P21397 1-527): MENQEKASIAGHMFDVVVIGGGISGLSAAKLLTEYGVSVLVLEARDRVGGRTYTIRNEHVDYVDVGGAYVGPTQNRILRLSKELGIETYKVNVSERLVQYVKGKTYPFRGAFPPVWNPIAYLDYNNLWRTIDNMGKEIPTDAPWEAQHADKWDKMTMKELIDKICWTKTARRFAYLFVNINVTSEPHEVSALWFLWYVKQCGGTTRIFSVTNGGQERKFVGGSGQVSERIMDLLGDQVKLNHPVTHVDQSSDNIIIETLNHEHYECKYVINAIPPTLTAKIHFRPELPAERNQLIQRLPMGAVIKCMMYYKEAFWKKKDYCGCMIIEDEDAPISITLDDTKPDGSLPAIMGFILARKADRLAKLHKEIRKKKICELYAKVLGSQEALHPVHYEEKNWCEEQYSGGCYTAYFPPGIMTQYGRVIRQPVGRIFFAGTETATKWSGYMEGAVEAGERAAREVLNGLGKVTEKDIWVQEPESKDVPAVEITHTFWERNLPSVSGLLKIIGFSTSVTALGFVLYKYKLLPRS
Procedure: as §1, §2

Phosphodiesterase 3B = target: T4, Phosphodiesterase 3B (Homo sapiens, UniProt Q13370); experiment: Off-target screening (CEREP); assay type: biochemical; settings: read-out: percent inhibition
T4 construct: purchased Eurofins CEREP SA
T4 sequence (Q13370 whole entry): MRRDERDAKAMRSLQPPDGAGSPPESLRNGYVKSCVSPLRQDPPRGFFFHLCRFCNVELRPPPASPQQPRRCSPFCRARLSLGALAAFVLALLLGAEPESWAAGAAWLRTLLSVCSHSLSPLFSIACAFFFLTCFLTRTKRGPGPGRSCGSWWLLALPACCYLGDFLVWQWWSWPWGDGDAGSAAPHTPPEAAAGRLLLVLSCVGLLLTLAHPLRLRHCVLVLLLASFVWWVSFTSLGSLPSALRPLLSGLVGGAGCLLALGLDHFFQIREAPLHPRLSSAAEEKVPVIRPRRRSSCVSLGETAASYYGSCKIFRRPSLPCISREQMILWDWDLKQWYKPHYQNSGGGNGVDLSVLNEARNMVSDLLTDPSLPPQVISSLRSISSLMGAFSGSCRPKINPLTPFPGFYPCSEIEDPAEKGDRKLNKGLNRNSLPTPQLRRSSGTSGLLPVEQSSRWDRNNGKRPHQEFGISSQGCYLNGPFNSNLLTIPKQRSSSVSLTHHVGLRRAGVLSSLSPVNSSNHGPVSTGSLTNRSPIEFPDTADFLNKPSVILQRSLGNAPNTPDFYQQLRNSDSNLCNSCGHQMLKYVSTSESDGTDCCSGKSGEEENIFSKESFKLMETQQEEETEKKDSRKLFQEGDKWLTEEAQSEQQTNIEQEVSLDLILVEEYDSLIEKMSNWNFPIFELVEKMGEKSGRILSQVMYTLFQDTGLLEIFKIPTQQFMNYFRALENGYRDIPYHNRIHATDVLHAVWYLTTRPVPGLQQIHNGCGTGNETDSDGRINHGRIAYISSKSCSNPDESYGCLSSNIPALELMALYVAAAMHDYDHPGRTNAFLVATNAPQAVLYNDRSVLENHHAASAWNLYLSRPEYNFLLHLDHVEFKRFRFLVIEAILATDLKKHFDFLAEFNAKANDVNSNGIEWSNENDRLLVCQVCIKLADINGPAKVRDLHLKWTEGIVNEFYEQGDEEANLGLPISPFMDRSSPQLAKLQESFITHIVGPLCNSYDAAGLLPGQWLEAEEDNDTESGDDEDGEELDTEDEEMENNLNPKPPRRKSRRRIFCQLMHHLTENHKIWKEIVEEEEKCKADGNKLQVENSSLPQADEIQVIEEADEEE
Procedure: as §1, §2

C. albicans ATCC 90028 = experiment: microbe, parasite or virus in culture; settings: Candida albicans
[3] = ATCC27853, CAMHB, mode of at least three replicates (RO7036668 one replicate)

Question: What does the source list for `CN1C(=O)[C@H](CCCCN)NC(=O)[C@H](CCCN)NCc2cccnc2Sc2c(Cl)ccc(-c3ccc(C(=O)O)cc3)c2CNC(=O)[C@@H]1Cc1c[nH]c2ccccc12` [RO7202110]?
Answer: MIC (P. aeruginosa ATCC 27853; [3]): > 64 µg/mL; IC50 (HEK293 cells): > 100 µM; IC50 (hERG): > 20 µM; hERG IC20 (hERG): > 10 µM; MNT (Micronucleus test (MNT)): Negative; Threshold concentration for precipitation [1]: 0.39 mg/mL; Haemolysis [2]: None; inhibition at 10 µM (Abl kinase; 10 µM, duplicates): -24%; inhibition at 10 µM (CDK2; 10 µM, duplicates): 17%; inhibition at 10 µM (Monoamine oxidase-A; 10 µM, duplicates): 11%; inhibition at 10 µM (Phosphodiesterase 3B; 10 µM, duplicates): 2%; MIC (C. albicans ATCC 90028; ATCC90028): > 64 µg/mL

Question: What does the source list for `C[C@@H](O)[C@H]1C(=O)N2C(C(=O)O)=C(S[C@@H]3CN[C@H](C(=O)N(C)C)C3)[C@H](C)[C@H]12` [meropenem, reference compound]?
Answer: MIC (P. aeruginosa ATCC 27853; [3]): 0.5 µg/mL (≈ 1.3 µM); MIC (P. aeruginosa ATCC 27853; ATCC27853, read-out: MIC 100%, Study LGC277937, 100%): 0.5 µg/mL (≈ 1.3 µM); MIC (P. aeruginosa ATCC 27853; ATCC27853, read-out: MIC 100%, Study LGC279800, 100%): 0.25 µg/mL (≈ 0.652 µM); MIC (P. aeruginosa ATCC 27853; ATCC27853, read-out: MIC 100%, Study LGC281440, 100%): 0.25 µg/mL (≈ 0.652 µM); MIC (P. aeruginosa ATCC 27853; ATCC27853, read-out: MIC 100%, Study LGC282160, 100%): 0.5 µg/mL (≈ 1.3 µM); MIC (P. aeruginosa ATCC 27853; ATCC27853, read-out: MIC 100%, Study LGC282623, 100%): 0.5 µg/mL (≈ 1.3 µM); MIC (P. aeruginosa ATCC 27853; ATCC27853, read-out: MIC 100%, Study LGC283932, 100%): 0.5 µg/mL (≈ 1.3 µM); MIC (P. aeruginosa ATCC 27853; ATCC27853, read-out: MIC 100%, Study LGC284200, 100%): 0.5 µg/mL (≈ 1.3 µM); MIC (P. aeruginosa ATCC 27853; ATCC27853, read-out: MIC 100%, Study LGC284879, 100%): 0.5 µg/mL (≈ 1.3 µM); MIC (P. aeruginosa ATCC 27853; ATCC27853, read-out: MIC 100%, Study LGC285582, 100%): 0.25 µg/mL (≈ 0.652 µM); MIC (P. aeruginosa ATCC 27853; ATCC27853, read-out: MIC 100%, Study LGC286210, 100%): 0.5 µg/mL (≈ 1.3 µM); MIC (P. aeruginosa ATCC 27853; ATCC27853, read-out: MIC 100%, Study LGC293598, 100%): 0.5 µg/mL (≈ 1.3 µM); MIC (P. aeruginosa ATCC 27853; ATCC27853, read-out: MIC 100%, Study LGC294355, 100%): 0.5 µg/mL (≈ 1.3 µM); MIC (P. aeruginosa ATCC 27853; ATCC27853, read-out: MIC 100%, Study LGC295147, 100%): 0.5 µg/mL (≈ 1.3 µM); MIC (P. aeruginosa ATCC 27853; ATCC27853, read-out: MIC 100%, Study LGC296813, 100%): 0.5 µg/mL (≈ 1.3 µM); MIC (P. aeruginosa ATCC 27853; ATCC27853, read-out: MIC 100%, Study LGC299544, 100%): 0.5 µg/mL (≈ 1.3 µM); MIC (P. aeruginosa ATCC 27853; ATCC27853, read-out: MIC 100%, Study LGC301026, 100%): 0.25 µg/mL (≈ 0.652 µM); MIC (P. aeruginosa ATCC 27853; ATCC27853, read-out: MIC 100%, Study LGC308175, 100%): 0.25 µg/mL (≈ 0.652 µM); MIC (P. aeruginosa ATCC 27853; ATCC27853, read-out: MIC 100%, Study ROC003, 100%): 0.5 µg/mL (≈ 1.3 µM); MIC (P. aeruginosa ATCC 27853; ATCC27853, read-out: MIC 100%, Study ROC004, 100%): 0.5 µg/mL (≈ 1.3 µM); MIC (P. aeruginosa ATCC 27853; ATCC27853, read-out: MIC 100%, Study ROC005, 100%): 0.5 µg/mL (≈ 1.3 µM); MIC (P. aeruginosa ATCC 27853; ATCC27853, read-out: MIC 100%, Study ROC006, 100%): 0.5 µg/mL (≈ 1.3 µM); MIC (P. aeruginosa ATCC 27853; ATCC27853, read-out: MIC 100%, Study ROC007, 100%): 0.5 µg/mL (≈ 1.3 µM); MIC (P. aeruginosa ATCC 27853; ATCC27853, read-out: MIC 100%, Study ROC008, 100%): 2 µg/mL (≈ 5.22 µM); MIC (P. aeruginosa ATCC 27853; ATCC27853, read-out: MIC 100%, Study ROC009, 100%): 0.25 µg/mL (≈ 0.652 µM); MIC (P. aeruginosa ATCC 27853; ATCC27853, read-out: MIC 100%, Study ROC010, 100%): 0.5 µg/mL (≈ 1.3 µM); MIC (P. aeruginosa ATCC 27853; ATCC27853, read-out: MIC 100%, Study ROC012, 100%): 0.12 µg/mL (≈ 0.313 µM); MIC (P. aeruginosa ATCC 27853; ATCC27853, read-out: MIC 100%, Study ROC013, 100%): 0.5 µg/mL (≈ 1.3 µM); MIC (C. albicans ATCC 90028; ATCC90028): > 64 µg/mL; MIC (C. albicans ATCC 90028; ATCC90028, read-out: MIC 100%): > 64 µg/mL

Question: For `CN1C(=O)[C@H](CCCCN)NC(=O)[C@H](CCCN)NCc2cccnc2Sc2cccc(-c3ccc(C(=O)O)cc3)c2CNC(=O)[C@@H]1Cc1c[nH]c2ccccc12` [zosurabalpin], which “RO7223280 MIC 100%” value (P. aeruginosa ATCC 27853; Study LGC296813) is on record?
Answer: >64 µg/mL

Question: And the “RO7223280 MIC 100%” value (P. aeruginosa ATCC 27853; Study LGC299544)?
Answer: >64 µg/mL

Question: What about the “RO7223280 MIC 100%” value (P. aeruginosa ATCC 27853; Study LGC308175) of the same compound?
Answer: >64 µg/mL

Question: What about the MIC (P. aeruginosa ATCC 27853; ATCC27853) of the same compound?
Answer: > 64 µg/mL

Question: What about the IC50 (HEK293 cells) of the same compound?
Answer: > 100 µM

Question: What about the IC50 (hERG) of the same compound?
Answer: > 20 µM

Question: What about the “hERG IC20” value (hERG) of the same compound?
Answer: > 10 µM

Question: What about the MNT (Micronucleus test (MNT)) of the same compound?
Answer: Negative

Question: What about the “Threshold concentration for precipitation” value [1] of the same compound?
Answer: 1.76 mg/mL

Question: And the “Haemolysis” value [2]?
Answer: None

Question: What about the inhibition at 10 µM (Abl kinase) of the same compound?
Answer: -18%

Question: What about the inhibition at 10 µM (CDK2) of the same compound?
Answer: 9%

Question: And the inhibition at 10 µM (Monoamine oxidase-A)?
Answer: 2%

Question: What about the inhibition at 10 µM (Phosphodiesterase 3B) of the same compound?
Answer: 2%

Question: What about the MIC (C. albicans ATCC 90028; ATCC90028) of the same compound?
Answer: > 64 µg/mL
